In ChEMBL document CHEMBL3046013, “Pyrithiobac reduces control of green foxtail (Setaria viridis) and bristly foxtail (Setaria verticillata) by propaquizafop” (2009):

Legend:
Assay type in all cases: functional
Design in all cases: scale not given: the % may be the effect or the level left
Setaria viridis [1] = assay: Herbicidal activity against Setaria viridis (green foxtail) assessed as reduction of fresh weight at 75 g ai/ha after 45 days in presence of 68 g ai/ha of pyrithiobac and ammonium sulphate relative to control
Setaria verticillata [2] = assay: Herbicidal activity against Setaria verticillata assessed as reduction of fresh weight at 75 g ai/ha after 45 days relative to control in presence of ammonium sulphate
Setaria viridis [3] = assay: Herbicidal activity against Setaria viridis (green foxtail) assessed as reduction of fresh weight at 75 g ai/ha after 45 days relative to control in presence of ammonium sulphate
Setaria verticillata [4] = assay: Herbicidal activity against Setaria verticillata assessed as reduction of fresh weight at 75 g ai/ha after 45 days in presence of 68 g ai/ha of pyrithiobac treated 1 day before compound challenge relative to control
Setaria viridis [5] = assay: Herbicidal activity against Setaria viridis (green foxtail) assessed as reduction of fresh weight at 75 g ai/ha after 45 days in presence of 68 g ai/ha of pyrithiobac treated 3 days before compound challenge relative to control
Setaria viridis [6] = assay: Herbicidal activity against Setaria viridis (green foxtail) assessed as reduction of fresh weight at 75 g ai/ha after 45 days in presence of 68 g ai/ha of pyrithiobac treated 1 day before compound challenge relative to control
Setaria verticillata [7] = assay: Herbicidal activity against Setaria verticillata assessed as reduction of fresh weight at 75 g ai/ha after 45 days in presence of 68 g ai/ha of pyrithiobac treated 3 days before compound challenge relative to control
Setaria verticillata [8] = assay: Herbicidal activity against Setaria verticillata assessed as reduction of fresh weight at 75 g ai/ha after 45 days in presence of 68 g ai/ha of pyrithiobac treated 1 day after compound challenge relative to control
Setaria viridis [9] = assay: Herbicidal activity against Setaria viridis (green foxtail) assessed as reduction of fresh weight at 75 g ai/ha after 45 days in presence of 68 g ai/ha of pyrithiobac treated 1 day after compound challenge relative to control
Setaria verticillata [10] = assay: Herbicidal activity against Setaria verticillata assessed as reduction of fresh weight at 75 g ai/ha after 45 days in presence of 68 g ai/ha of pyrithiobac treated 3 days after compound challenge relative to control
Setaria viridis [11] = assay: Herbicidal activity against Setaria viridis (green foxtail) assessed as reduction of fresh weight at 75 g ai/ha after 45 days in presence of 68 g ai/ha of pyrithiobac treated 3 days after compound challenge relative to control
Setaria viridis [12] = assay: Herbicidal activity against Setaria viridis (green foxtail) assessed as reduction of fresh weight at 150 g ai/ha after 45 days relative to control
Setaria viridis [13] = assay: Herbicidal activity against Setaria viridis (green foxtail) assessed as reduction of fresh weight at 125 g ai/ha after 45 days in presence of 68 g ai/ha of pyrithiobac relative to control
Setaria viridis [14] = assay: Herbicidal activity against Setaria viridis (green foxtail) assessed as reduction of fresh weight at 125 g ai/ha after 45 days relative to control
Setaria viridis [15] = assay: Herbicidal activity against Setaria viridis (green foxtail) assessed as reduction of fresh weight at 100 g ai/ha after 45 days in presence of 68 g ai/ha of pyrithiobac relative to control
Setaria viridis [16] = assay: Herbicidal activity against Setaria viridis (green foxtail) assessed as reduction of fresh weight at 100 g ai/ha after 45 days relative to control
Setaria viridis [17] = assay: Herbicidal activity against Setaria viridis (green foxtail) assessed as reduction of fresh weight at 75 g ai/ha after 45 days in presence of 68 g ai/ha of pyrithiobac relative to control
Setaria viridis [18] = assay: Herbicidal activity against Setaria viridis (green foxtail) assessed as reduction of fresh weight at 75 g ai/ha after 45 days relative to control
Setaria verticillata [19] = assay: Herbicidal activity against Setaria verticillata assessed as reduction of fresh weight at 150 g ai/ha after 45 days in presence of 68 g ai/ha of pyrithiobac relative to control
Setaria verticillata [20] = assay: Herbicidal activity against Setaria verticillata assessed as reduction of fresh weight at 150 g ai/ha after 45 days relative to control
Setaria verticillata [21] = assay: Herbicidal activity against Setaria verticillata assessed as reduction of fresh weight at 125 g ai/ha after 45 days in presence of 68 g ai/ha of pyrithiobac relative to control
Setaria verticillata [22] = assay: Herbicidal activity against Setaria verticillata assessed as reduction of fresh weight at 125 g ai/ha after 45 days relative to control
Setaria verticillata [23] = assay: Herbicidal activity against Setaria verticillata assessed as reduction of fresh weight at 100 g ai/ha after 45 days in presence of 68 g ai/ha of pyrithiobac relative to control
Setaria verticillata [24] = assay: Herbicidal activity against Setaria verticillata assessed as reduction of fresh weight at 100 g ai/ha after 45 days relative to control
Setaria verticillata [25] = assay: Herbicidal activity against Setaria verticillata assessed as reduction of fresh weight at 75 g ai/ha after 45 days in presence of 68 g ai/ha of pyrithiobac relative to control
Setaria verticillata [26] = assay: Herbicidal activity against Setaria verticillata assessed as reduction of fresh weight at 75 g ai/ha after 45 days relative to control
Setaria viridis [27] = assay: Herbicidal activity against Setaria viridis (green foxtail) assessed as reduction of fresh weight at 150 g ai/ha after 45 days in presence of 68 g ai/ha of pyrithiobac relative to control

With `CC(C)=NOCCOC(=O)[C@@H](C)Oc1ccc(Oc2cnc3cc(Cl)ccc3n2)cc1` [PROPAQUIZAFOP] as the molecule, how does the Activity (Setaria viridis [1]) read?
The Activity was 57%.

And the Activity (Setaria verticillata [2])?
The Activity was 94%.

And the Activity (Setaria viridis [3])?
The Activity was 89%.

What about the Activity (Setaria verticillata [4]) of the same molecule?
Its Activity is 75%.

What about the Activity (Setaria viridis [5]) of the same molecule?
Its Activity is 66%.

And the Activity (Setaria viridis [6])?
The Activity was 56%.

And the Activity (Setaria verticillata [7])?
Its Activity is 81%.

What about the Activity (Setaria verticillata [8]) of the same molecule?
The Activity was 90%.

And the Activity (Setaria viridis [9])?
The Activity was 82%.

What about the Activity (Setaria verticillata [10]) of the same molecule?
The Activity was 93%.

And the Activity (Setaria viridis [11])?
The Activity was 85%.

And the Activity (Setaria viridis [12])?
The Activity was 99%.

And the Activity (Setaria viridis [13])?
The Activity was 66%.

And the Activity (Setaria viridis [14])?
Its Activity is 97%.

And the Activity (Setaria viridis [15])?
Its Activity is 59%.

And the Activity (Setaria viridis [16])?
The Activity was 91%.

What about the Activity (Setaria viridis [17]) of the same molecule?
The Activity was 53%.

And the Activity (Setaria viridis [18])?
The Activity was 86%.

And the Activity (Setaria verticillata [19])?
The Activity was 83%.

And the Activity (Setaria verticillata [20])?
The Activity was 100%.

What about the Activity (Setaria verticillata [21]) of the same molecule?
The Activity was 78%.

And the Activity (Setaria verticillata [22])?
Its Activity is 99%.

And the Activity (Setaria verticillata [23])?
Its Activity is 73%.

What about the Activity (Setaria verticillata [24]) of the same molecule?
Its Activity is 95%.

What about the Activity (Setaria verticillata [25]) of the same molecule?
Its Activity is 70%.

And the Activity (Setaria verticillata [26])?
The Activity was 92%.

And the Activity (Setaria viridis [27])?
Its Activity is 72%.
